Experimental data from patent US20260356817A1, “AMINOPYRIMIDINE AND AMINOTRIAZINE DERIVATIVES AS MYC PROTEIN MODULATORS” (Sanford Burnham Prebys Medical Discovery Institute, priority 2022, published 2026).
Read-outs that look alike come from different tables or passages of the source.

System: Myc
Test: Myc inhibition assay: Myc expression per cell by anti-Myc immunofluorescence, high-content imaging
Format: cell-based, human (patient-derived medulloblastoma xenograft cells)
Conditions: medulloblastoma PDX cells, 4 h
Description: To identify Myc inhibitors, cells isolated from patient-derived orthotopic xenografts (PDXs) from patients with Myc-driven medulloblastoma were used. Specifically, PDX cells were propagated by transplantation directly into the cerebellum of immunodeficient (NSG) mice and were never passaged in vitro in order to maintain properties of the tumor from which they were derived. Tumor tissues were isolated from tumor-bearing animals, dissociated into a single-cell suspension, resuspended in serum-free media, and immediately plated in 384 well plates. After overnight recovery, compounds were added to each well, and cells were incubated for 4 hours before being fixed and stained with anti-Myc antibodies and with DAPI to label nuclei. Cells were then analyzed using high-content imaging to determine the levels of Myc expression per cell and IC50 values of the compounds.

[1] = Table 1, read-out: IC50 (Myc inhibition)
[2] = Table 2, read-out: MYC Inhibition IC50

IC50 [1]	IC50 [2]	SMILES
200 to 1000 nM	200 to 1000 nM	O=C(c1cccc(Nc2nccc(-c3ccc4[nH]cnc4c3)n2)c1)N1CCOCC1 [Compound 11, (3-((4-(1H-benzo[d]imidazol-5-yl)pyrimidin-2-yl)amino)phenyl)(morpholino)methanone]
200 to 1000 nM	200 to 1000 nM	O=S(=O)(Nc1ccccc1F)c1cccc(Nc2nccc(-c3ccc4[nH]cnc4c3)n2)c1 [Compound 12, 3-((4-(1H-benzo[d]imidazol-5-yl)pyrimidin-2-yl)amino)-N-(2-fluorophenyl)benzenesulfonamide]
< 200 nM	< 200 nM	Cc1cc(F)cc(Nc2nccc(-c3ccc4[nH]cnc4c3)n2)c1 [Compound 13, 4-(1H-benzo[d]imidazol-5-yl)-N-(3-fluoro-5-methylphenyl)pyrimidin-2-amine]
10000 to 100000 nM	10000 to 100000 nM	FC(F)(F)c1cncc(Nc2nccc(-c3ccc4[nH]cnc4c3)n2)c1 [Compound 14, 4-(1H-benzo[d]imidazol-5-yl)-N-(5-(trifluoromethyl)pyridin-3-yl)pyrimidin-2-amine]
200 to 1000 nM	200 to 1000 nM	CCC(=O)Nc1cccc(Nc2nccc(-c3ccc4[nH]cnc4c3)n2)c1 [Compound 15, N-(3-((4-(1H-benzo[d]imidazol-5-yl)pyrimidin-2-yl)amino)phenyl)propionamide]
< 200 nM	< 200 nM	Cc1cc(C)cc(Nc2nccc(-c3ccc4[nH]cnc4c3)n2)c1 [Compound 16, 4-(1H-benzo[d]imidazol-5-yl)-N-(3,5-dimethylphenyl)pyrimidin-2-amine]

Further lines, the molecule ahead of its results:

SMILES	IC50 [1]	IC50 [2]
O=C(Nc1cccc(Nc2nccc(-c3ccc4[nH]cnc4c3)n2)c1)c1ccccc1 [Compound 1, N-(3-((4-(1H-benzo[d]imidazol-5-yl)pyrimidin-2-yl)amino)phenyl)benzamide]	< 200 nM	< 200 nM
CC(=O)Nc1cccc(Nc2nccc(-c3ccc4[nH]cnc4c3)n2)c1 [Compound 2, N-(3-((4-(1H-benzo[d]imidazol-5-yl)pyrimidin-2-yl)amino)phenyl)acetamide]	200 to 1000 nM	200 to 1000 nM
Cc1cccc(C)c1-c1cccc(Nc2nccc(-c3ccc4[nH]cnc4c3)n2)c1 [Compound 3, 4-(1H-benzo[d]imidazol-5-yl)-N-(2′,6′-dimethyl-[1,1′-biphenyl]-3-yl)pyrimidin-2-amine]	1000 to 10000 nM	1000 to 10000 nM
Cc1ccc(C)n1-c1cccc(Nc2nccc(-c3ccc4[nH]cnc4c3)n2)c1 [Compound 4, 4-(1H-benzo[d]imidazol-5-yl)-N-(3-(2,5-dimethyl-1H-pyrrol-1-yl)phenyl)pyrimidin-2-amine]	1000 to 10000 nM	1000 to 10000 nM
CCS(=O)(=O)c1cccc(Nc2nccc(-c3ccc4[nH]cnc4c3)n2)c1 [Compound 5, 4-(1H-benzo[d]imidazol-5-yl)-N-(3-(ethylsulfonyl)phenyl)pyrimidin-2-amine]	< 200 nM	< 200 nM
c1cc(-c2ccc3[nH]cnc3c2)nc(Nc2cnn(C3CCOCC3)c2)n1 [Compound 6, 4-(1H-benzo[d]imidazol-5-yl)-N-(1-(tetrahydro-2H-pyran-4-yl)-1H-pyrazol-4-yl)pyrimidin-2-amine]	1000 to 10000 nM	1000 to 10000 nM
CN(C)S(=O)(=O)c1cccc(Nc2nccc(-c3ccc4[nH]cnc4c3)n2)c1 [Compound 7, 3-((4-(1H-benzo[d]imidazol-5-yl)pyrimidin-2-yl)amino)-N,N-dimethylbenzenesulfonamide]	< 200 nM	< 200 nM
c1cc(Nc2nccc(-c3ccc4[nH]cnc4c3)n2)cc(-n2cccn2)c1 [Compound 8, N-(3-(1H-pyrazol-1-yl)phenyl)-4-(1H-benzo[d]imidazol-5-yl)pyrimidin-2-amine]	< 200 nM	< 200 nM
O=C(NC1CC1)c1cccc(Nc2nccc(-c3ccc4[nH]cnc4c3)n2)c1 [Compound 9, 3-((4-(1H-benzo[d]imidazol-5-yl)pyrimidin-2-yl)amino)-N-cyclopropylbenzamide]	200 to 1000 nM	200 to 1000 nM
